In general, EC50 refers to the midpoint of the concentration-response curve. What is called IC50 is the concentration at which inhibition is half-maximal.

Active and inactive are the calls of the source.

The target in one experiment is Ion channel NompC (Danio rerio, UniProt Q7T1G6). Briefly: Dose response cell-based high-throughput screening assay for agonists of the transient receptor potential channel N1 (TRPN1). [Related pubchem assays (depositor defined):AID1424, AID1448]. Format: functional.
Another experiment deals with T1, Mucolipin-3 (Homo sapiens, UniProt Q8TDD5).
T1 sequence (Q8TDD5 whole entry): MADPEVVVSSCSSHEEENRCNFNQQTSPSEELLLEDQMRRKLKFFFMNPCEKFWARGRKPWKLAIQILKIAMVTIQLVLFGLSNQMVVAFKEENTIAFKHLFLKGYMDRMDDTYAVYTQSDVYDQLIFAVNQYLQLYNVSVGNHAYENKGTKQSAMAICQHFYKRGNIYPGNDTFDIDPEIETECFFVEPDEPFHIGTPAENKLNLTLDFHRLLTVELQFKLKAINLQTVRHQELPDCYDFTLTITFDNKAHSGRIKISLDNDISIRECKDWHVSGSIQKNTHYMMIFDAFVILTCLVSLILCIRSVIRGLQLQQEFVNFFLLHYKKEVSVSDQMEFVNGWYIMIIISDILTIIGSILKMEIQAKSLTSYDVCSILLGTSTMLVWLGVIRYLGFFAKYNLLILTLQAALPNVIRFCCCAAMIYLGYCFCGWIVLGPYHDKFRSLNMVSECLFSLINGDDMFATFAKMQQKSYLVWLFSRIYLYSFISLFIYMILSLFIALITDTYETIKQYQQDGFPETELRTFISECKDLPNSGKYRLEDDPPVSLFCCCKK
Description: Fluorescence counterscreen assay for […] agonists: dose response cell-based high-throughput screening assay to identify agonists of the transient receptor potential channel ML3 (TRPML3). [Related pubchem assays: 1424, 1448 ]. In kind it is functional. Background: Counterscreens check selectivity or assay interference.

The target in experiment [1] is Mitogen-activated protein kinase 10 (Homo sapiens, UniProt P53779). Briefly: Dose response biochemical screening assay for inhibitors of c-Jun N-Terminal Kinase 3 (JNK3). [Related pubchem assays: 746 ].
The next experiment has as its target Integrin alpha-L (Mus musculus, UniProt P24063). Description: modulators of CD8 T cell-vesicle binding, dose response, powder samples, mouse 2C CD8+ cells (AID 504565). Format: functional.
The test system of a further experiment is T-cell. Briefly: loss of vesicle association with mouse CD8+ T cells – mouse 2C CD8+ T cells, flow cytometry, dose response (AID 485284). Format: functional. On the technique in general: A flow cytometer gives signals particle by particle.
A short description of experiment [2]: Luminescence Cell-Based Dose Response HTS to Identify Activators of Luciferase Translation or Activity in H4 […] Cells. [Related pubchem assays: 1829 (Project Summary), 1814 (Primary HTS)]. In kind it is functional.
The subject of another experiment is H4. Briefly: Luminescence Cell-Based Dose Response HTS to Identify Activators of 5'UTR Stem-Loop Driven Prion Protein mRNA Translation in H4 Neuroglioblastoma Cells. [Related pubchem assays: 1829 (Project Summary), 1814 (Primary HTS)]. Format: functional. The conditions noted are these: Homo sapiens.
Experiment [3] addresses NACHT, LRR and PYD domains-containing protein 3 (Homo sapiens, UniProt Q96P20). Description: NALP3 inhibitors in yeast, dose response, luminescent (AID 488799). Format: functional.
In experiment [4] the target is T2, Short transient receptor potential channel 4 (Mus musculus, UniProt Q9QUQ5).
T2 sequence (Q9QUQ5 whole entry): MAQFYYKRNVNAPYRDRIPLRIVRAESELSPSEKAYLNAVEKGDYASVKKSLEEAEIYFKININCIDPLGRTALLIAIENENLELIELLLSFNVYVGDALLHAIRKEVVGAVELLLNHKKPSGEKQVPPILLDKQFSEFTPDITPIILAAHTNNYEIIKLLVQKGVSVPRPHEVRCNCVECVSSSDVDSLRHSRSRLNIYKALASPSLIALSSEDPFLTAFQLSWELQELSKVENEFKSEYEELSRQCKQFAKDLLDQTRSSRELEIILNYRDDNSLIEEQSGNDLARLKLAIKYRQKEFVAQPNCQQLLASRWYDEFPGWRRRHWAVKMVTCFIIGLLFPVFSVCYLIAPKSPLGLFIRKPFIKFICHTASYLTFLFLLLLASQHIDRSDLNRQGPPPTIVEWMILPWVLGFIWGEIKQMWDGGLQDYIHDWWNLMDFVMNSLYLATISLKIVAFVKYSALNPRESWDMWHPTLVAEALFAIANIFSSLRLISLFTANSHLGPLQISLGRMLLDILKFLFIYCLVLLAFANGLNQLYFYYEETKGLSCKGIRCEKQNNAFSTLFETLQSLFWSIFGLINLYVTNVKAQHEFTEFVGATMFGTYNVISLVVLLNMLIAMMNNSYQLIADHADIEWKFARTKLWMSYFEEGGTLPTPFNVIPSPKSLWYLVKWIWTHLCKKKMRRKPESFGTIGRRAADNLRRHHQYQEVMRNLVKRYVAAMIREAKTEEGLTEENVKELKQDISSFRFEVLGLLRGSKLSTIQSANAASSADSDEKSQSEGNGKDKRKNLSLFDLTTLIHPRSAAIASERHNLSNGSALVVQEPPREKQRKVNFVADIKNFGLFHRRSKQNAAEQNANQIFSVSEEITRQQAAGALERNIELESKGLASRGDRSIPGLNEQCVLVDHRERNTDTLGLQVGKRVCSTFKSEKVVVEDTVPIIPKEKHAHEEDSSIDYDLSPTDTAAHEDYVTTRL
Briefly: potentiation of DAMGO-evoked TRPC4 calcium signal – cell-based, HEK293 TRPC4/mu-opioid, Fluo-4 calcium, EC20 DAMGO, dose response (AID 434941).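 Further: HEK293 cells coexpressing TRPC4 and mu opioid receptor stimulated by EC20 DAMGO.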 In kind it is functional.

A short description of experiment [5]: luciferase reporter signal suppression in cells – H4 neuroglioma cells, luminescence, dose response (AID 1990). In kind it is functional, cell-based.
The nature of experiment [6]: Luminescence Cell-Based Dose Response HTS to Identify Inhibitors of 5'UTR Stem-Loop Driven Prion Protein mRNA Translation in H4 Neuroglioblastoma Cells. [Related pubchem assays: 1827 (Project Summary), 1813 (Primary HTS)]. Format: functional.
The nature of experiment [7]: alpha-synuclein stem-loop luciferase translation blockers – H4 neuroglioma cells, luminescence, confirmation (AID 1988). In kind it is functional, cell-based.
In experiment [8] the target is DNA damage-inducible transcript 3 protein (Mus musculus, UniProt P35639). Format: functional, Cricetulus griseus.
A further experiment concerns the target X-box-binding protein 1 (Homo sapiens, UniProt P17861). Format: functional, Cricetulus griseus.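 Further: confirmatory dose-response counter-screen serving a CHOP assay.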

DNA damage-inducible transcript 3 protein, sequence (P35639 whole entry): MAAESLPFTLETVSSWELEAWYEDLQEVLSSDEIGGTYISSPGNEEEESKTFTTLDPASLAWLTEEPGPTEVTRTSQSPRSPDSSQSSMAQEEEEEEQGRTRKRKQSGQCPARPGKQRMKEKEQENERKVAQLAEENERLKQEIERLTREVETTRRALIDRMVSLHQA
Integrin alpha-L, sequence (P24063 whole entry): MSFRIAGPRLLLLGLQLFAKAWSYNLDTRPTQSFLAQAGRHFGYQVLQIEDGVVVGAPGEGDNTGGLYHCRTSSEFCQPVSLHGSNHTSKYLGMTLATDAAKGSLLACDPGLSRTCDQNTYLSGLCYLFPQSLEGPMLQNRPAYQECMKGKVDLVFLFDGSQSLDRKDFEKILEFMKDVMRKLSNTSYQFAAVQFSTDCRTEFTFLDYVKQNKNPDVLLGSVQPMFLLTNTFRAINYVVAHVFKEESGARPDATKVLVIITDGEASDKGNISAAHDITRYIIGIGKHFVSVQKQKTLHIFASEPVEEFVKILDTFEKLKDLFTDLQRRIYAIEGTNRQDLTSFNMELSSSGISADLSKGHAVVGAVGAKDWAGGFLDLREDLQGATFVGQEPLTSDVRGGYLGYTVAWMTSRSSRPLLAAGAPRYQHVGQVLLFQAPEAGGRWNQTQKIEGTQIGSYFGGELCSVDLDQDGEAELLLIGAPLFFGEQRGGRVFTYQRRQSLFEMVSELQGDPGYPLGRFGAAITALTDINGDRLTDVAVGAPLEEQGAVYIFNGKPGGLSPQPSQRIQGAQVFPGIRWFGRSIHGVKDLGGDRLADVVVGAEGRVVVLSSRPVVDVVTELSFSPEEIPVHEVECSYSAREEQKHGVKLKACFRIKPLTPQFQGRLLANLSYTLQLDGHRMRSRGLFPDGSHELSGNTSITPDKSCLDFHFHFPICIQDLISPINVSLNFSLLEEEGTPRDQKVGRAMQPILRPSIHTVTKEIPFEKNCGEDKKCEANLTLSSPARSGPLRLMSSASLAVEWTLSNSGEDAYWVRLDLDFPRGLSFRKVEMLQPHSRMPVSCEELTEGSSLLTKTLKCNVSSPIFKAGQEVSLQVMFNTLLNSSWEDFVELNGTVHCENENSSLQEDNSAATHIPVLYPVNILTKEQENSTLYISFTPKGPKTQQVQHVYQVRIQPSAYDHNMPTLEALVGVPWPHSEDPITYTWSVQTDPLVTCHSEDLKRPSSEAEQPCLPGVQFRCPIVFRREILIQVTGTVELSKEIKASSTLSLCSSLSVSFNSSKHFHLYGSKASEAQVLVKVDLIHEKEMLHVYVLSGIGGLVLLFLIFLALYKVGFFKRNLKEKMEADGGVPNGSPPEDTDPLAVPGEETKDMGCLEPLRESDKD
X-box-binding protein 1, sequence (P17861 whole entry): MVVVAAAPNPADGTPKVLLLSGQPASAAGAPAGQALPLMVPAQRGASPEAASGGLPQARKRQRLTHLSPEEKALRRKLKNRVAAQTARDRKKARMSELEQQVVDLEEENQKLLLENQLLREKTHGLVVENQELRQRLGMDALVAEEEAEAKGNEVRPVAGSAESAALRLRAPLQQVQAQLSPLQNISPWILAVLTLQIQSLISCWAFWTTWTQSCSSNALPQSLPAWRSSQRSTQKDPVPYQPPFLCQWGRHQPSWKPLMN
NACHT, LRR and PYD domains-containing protein 3, sequence (Q96P20 whole entry, the tested form may be a part): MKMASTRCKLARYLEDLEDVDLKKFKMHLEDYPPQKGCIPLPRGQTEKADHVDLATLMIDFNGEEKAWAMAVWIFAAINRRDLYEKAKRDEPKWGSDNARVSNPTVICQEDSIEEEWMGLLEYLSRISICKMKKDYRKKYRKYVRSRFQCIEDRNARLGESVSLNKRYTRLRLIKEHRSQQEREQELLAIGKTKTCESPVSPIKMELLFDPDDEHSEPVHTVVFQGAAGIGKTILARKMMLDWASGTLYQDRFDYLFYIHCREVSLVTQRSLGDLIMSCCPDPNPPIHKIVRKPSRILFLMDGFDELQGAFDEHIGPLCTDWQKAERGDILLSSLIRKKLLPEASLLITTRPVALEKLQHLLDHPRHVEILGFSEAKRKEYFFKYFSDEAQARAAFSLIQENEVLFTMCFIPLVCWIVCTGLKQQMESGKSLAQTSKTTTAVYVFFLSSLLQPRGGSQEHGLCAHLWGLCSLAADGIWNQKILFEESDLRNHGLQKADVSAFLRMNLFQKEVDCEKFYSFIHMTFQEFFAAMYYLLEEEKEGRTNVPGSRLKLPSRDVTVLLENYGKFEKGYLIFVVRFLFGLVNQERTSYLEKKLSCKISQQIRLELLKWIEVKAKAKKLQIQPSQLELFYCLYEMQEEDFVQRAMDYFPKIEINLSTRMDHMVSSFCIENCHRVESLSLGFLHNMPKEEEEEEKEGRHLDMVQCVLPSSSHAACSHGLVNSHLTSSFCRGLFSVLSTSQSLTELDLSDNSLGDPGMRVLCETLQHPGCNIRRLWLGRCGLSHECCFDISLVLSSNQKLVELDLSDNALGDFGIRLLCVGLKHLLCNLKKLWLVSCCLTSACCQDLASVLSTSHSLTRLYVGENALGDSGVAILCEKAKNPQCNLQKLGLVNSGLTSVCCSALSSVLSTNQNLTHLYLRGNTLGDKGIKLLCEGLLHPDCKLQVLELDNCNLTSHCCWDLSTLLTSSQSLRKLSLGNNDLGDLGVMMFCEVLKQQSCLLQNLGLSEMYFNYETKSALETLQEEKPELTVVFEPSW
Mitogen-activated protein kinase 10, sequence (P53779 whole entry): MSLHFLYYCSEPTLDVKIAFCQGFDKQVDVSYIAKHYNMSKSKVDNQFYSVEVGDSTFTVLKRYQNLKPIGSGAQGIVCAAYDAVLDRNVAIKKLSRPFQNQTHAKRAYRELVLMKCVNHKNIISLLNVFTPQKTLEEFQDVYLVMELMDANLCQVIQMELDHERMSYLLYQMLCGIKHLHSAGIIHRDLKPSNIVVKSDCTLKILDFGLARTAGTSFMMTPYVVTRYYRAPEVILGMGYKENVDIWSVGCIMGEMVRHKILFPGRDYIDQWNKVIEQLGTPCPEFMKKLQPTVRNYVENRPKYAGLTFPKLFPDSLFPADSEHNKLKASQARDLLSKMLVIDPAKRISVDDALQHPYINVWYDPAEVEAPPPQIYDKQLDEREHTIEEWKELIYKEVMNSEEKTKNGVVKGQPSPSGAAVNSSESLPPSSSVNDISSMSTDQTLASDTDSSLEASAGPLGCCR
Ion channel NompC, sequence (Q7T1G6 whole entry): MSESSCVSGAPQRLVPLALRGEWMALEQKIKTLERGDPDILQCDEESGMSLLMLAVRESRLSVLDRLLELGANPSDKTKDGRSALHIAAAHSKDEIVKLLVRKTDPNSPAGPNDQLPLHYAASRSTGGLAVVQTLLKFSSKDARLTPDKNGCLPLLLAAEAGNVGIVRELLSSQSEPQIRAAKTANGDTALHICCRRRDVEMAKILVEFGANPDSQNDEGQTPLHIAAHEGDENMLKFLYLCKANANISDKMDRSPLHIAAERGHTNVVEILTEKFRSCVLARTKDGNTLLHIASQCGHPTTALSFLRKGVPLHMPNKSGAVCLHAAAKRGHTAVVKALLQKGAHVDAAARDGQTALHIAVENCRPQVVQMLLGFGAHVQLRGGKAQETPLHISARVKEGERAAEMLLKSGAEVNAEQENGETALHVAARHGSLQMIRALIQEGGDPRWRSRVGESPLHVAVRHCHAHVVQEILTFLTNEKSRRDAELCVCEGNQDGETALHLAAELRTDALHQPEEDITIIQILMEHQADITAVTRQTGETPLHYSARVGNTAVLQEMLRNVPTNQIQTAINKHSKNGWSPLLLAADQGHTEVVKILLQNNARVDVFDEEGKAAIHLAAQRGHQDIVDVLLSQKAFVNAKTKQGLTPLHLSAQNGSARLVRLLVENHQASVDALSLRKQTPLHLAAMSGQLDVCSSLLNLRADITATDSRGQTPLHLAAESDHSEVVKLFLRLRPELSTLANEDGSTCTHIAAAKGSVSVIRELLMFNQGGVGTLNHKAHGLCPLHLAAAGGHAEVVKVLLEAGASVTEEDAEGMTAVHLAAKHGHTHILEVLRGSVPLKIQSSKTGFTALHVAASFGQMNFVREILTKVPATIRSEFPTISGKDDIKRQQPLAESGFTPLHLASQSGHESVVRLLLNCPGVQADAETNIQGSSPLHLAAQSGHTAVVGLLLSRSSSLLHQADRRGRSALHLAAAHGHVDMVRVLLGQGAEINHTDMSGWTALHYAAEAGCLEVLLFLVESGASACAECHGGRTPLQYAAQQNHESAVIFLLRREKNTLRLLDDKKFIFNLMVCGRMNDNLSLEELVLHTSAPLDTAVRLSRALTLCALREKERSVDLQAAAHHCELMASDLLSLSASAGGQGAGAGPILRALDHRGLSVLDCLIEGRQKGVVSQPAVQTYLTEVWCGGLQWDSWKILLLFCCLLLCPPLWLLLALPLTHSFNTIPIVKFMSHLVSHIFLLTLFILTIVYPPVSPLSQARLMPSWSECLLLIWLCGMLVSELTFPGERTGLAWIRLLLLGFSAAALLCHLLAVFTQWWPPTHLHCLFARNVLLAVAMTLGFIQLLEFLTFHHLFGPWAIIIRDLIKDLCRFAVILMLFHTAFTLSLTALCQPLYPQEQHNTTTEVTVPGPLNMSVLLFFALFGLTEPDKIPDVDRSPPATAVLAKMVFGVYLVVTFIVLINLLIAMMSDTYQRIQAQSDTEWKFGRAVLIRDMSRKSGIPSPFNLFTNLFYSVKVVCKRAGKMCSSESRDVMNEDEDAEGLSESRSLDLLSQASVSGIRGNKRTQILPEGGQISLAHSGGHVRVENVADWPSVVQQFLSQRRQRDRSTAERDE

Consider `O=c1oc2c3c4c(cc2c(C(F)(F)F)c1CCN1CCOCC1)CCCN4CCC3`, for which the values for the EC50 on Ion channel NompC and at Mucolipin-3 were > 3.32 µM (inactive) and 4.56 µM (active), respectively.
Take `CCOc1ccc(-c2nc(N)ncc2-c2ccccc2)c(O)c1`: the IC50 in experiment [1] is 12.7 µM (not active). Besides, the EC50 is 0.173 µM (active) at Integrin alpha-L and 25.8 µM (inactive) in the experiment on T-cell.
As to `O=C(Nc1cccc(Cl)c1)c1cnn2cccnc12`, the EC50 in [2] is 3 µM (active); in the experiment with H4, 19.1 µM (active); in experiment [4], 1.68 µM (active). The IC50 in [3] was 8.19 µM (active).
As for `CC(C)CCn1c(SCc2ccc(Cl)cc2)nc2c1c(=O)[nH]c(=O)n2C`, the EC50 in experiment [5] was 14.3 µM (active); in [6], 13.3 µM (active); in [7] it was 11.6 µM (active). Moreover, the “Absolute IC50 (CHOP)” value in [8] was less than 10 µM. The “Absolute IC50 (XBP1)” value at X-box-binding protein 1 turned out to be 10 µM.

Values taken from ChEMBL document CHEMBL1201862, “PubChem BioAssay data set” (2004).
